The record followed here is ChEMBL document CHEMBL4033683, “Dual functional small molecule fluorescent probes for image-guided estrogen receptor-specific targeting coupled potent antiproliferative potency for breast cancer therapy” (Bioorg Med Chem, 2017).

pEC50, pIC50: −log10 of the molar value. Activity calls are given as the source filed them. No cut-off for these calls is given here.

Data set [1] concerns the target T1, Estrogen receptor beta (Homo sapiens, UniProt Q92731). The data set can be described thus: Agonist activity at ERbeta (unknown origin) expressed in HEK293T cells after 24 hrs by luciferase reporter gene assay relative to estradiol. In kind it is cell-based. (In general: Reporter assays use an easily measured gene product as a stand-in for the process of interest.)

Data set [2] concerns the target T2, Estrogen receptor (Homo sapiens) (UniProt P03372).
T2 sequence (whole entry): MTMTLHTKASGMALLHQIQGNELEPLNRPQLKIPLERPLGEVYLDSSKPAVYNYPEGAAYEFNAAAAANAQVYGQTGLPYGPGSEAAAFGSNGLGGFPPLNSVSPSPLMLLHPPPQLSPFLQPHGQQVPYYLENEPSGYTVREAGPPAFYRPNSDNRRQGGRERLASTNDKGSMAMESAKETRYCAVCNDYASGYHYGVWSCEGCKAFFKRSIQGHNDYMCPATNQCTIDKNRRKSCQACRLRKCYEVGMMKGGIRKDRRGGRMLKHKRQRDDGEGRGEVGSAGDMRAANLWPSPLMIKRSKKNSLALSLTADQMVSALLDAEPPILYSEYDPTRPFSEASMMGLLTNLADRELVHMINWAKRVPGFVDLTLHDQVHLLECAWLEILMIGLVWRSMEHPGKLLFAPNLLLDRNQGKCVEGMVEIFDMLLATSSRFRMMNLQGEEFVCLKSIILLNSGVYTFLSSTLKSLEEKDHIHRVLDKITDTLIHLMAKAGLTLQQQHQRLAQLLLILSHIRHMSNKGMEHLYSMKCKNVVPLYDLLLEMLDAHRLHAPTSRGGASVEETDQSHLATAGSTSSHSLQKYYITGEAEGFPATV
Nature of the data set: Antagonist activity at ERalpha (unknown origin) expressed in HEK293T cells assessed as inhibition of estradiol-induced response after 24 hrs by luciferase reporter gene assay relative to estradiol. It is filed as cell-based.

Data set [3] deals with T2, Estrogen receptor (Homo sapiens). The data set can be described thus: Agonist activity at ERalpha (unknown origin) expressed in HEK293T cells after 24 hrs by luciferase reporter gene assay. It is filed as cell-based.
The subject of data set [4] is MDA-MB-453. The data set can be described thus: Antiproliferative activity against human MDA-MB-453 cells after 72 hrs by MTT assay. In kind it is functional, cell-based. The note with it: MDA-MB-453, 72 h. Background: Formazan colour is commonly taken as a measure of viable cells.
For data set [5], the target named is T1, Estrogen receptor beta. The data set can be described thus: Agonist activity at ERbeta (unknown origin) expressed in HEK293T cells after 24 hrs by luciferase reporter gene assay. It is filed as cell-based.
Data set [6] concerns MDA-MB-231. Nature of the data set: Antiproliferative activity against human MDA-MB-231 cells after 72 hrs by MTT assay. It is filed as functional, cell-based. The note with it: MDA-MB-231, 72 h.
For data set [7], the system named is MCF7. The data set can be described thus: cells. The note with it: Homo sapiens, MCF7, 72 h.
Data set [8] can be described thus: Drug uptake in cytosol of human MCF7 cells at 1 uM up to 4 mins by real time fluorescence imaging analysis. In kind it is ADME.
The species named for data set [9] is Homo sapiens. Nature of the data set: Binding affinity to ER in human MCF7 cells assessed as increase in fluorescence in nucleus at 10 uM after 2 hrs by confocal laser scanning microscopic method. In kind it is cell-based.
Data set [10] deals with T1, Estrogen receptor beta. The data set can be described thus: Binding affinity to ERbeta (unknown origin) at 1 uM by fluorescence assay.
Data set [11] has as its target T2, Estrogen receptor (Homo sapiens). The data set can be described thus: Binding affinity to ERalpha (unknown origin) at 1 uM in presence of estradiol by fluorescence assay.
The target is the same in data set [12]. The data set can be described thus: Binding affinity to ERalpha (unknown origin) at 1 uM by fluorescence assay.
Data set [13] is filed under the species Homo sapiens. The data set can be described thus: Binding affinity to ER in human MCF7 cells at 1 uM up to 4 mins by real time imaging analysis. In kind it is cell-based.
Data set [14] is described as follows: Drug uptake in nucleus of human MCF7 cells at 1 uM up to 4 mins by real time fluorescence imaging analysis. In kind it is ADME.
Data set [15] is filed under the species Homo sapiens. Nature of the data set: Binding affinity to ER in human MCF7 cells assessed as increase in fluorescence in cytosol at 10 uM after 2 hrs by confocal laser scanning microscopic method. In kind it is cell-based.
Data set [16] is filed under the species Homo sapiens. Nature of the data set: Binding affinity to ER in human MCF7 cells assessed as increase in fluorescence in nucleus at 1 uM up to 4 mins by real time imaging analysis. It is filed as cell-based.
Data set [17] can be described thus: Drug uptake in human MDA-MB-231 cells at 10 uM after 2 hrs by confocal laser scanning microscopic method. In kind it is ADME, cell-based. The note with it: mda-mb-231, 2 h.
The species entered for data set [18] is Homo sapiens. The data set can be described thus: Binding affinity to ER in human MCF7 cells assessed as increase in fluorescence in cytosol at 1 uM up to 4 mins by real time imaging analysis. It is filed as cell-based.
Data set [19] has as its target T1, Estrogen receptor beta. Nature of the data set: Binding affinity to ERbeta (unknown origin) at 1 uM in presence of estradiol by fluorescence assay.
Data set [20] is filed under the species Homo sapiens. The data set can be described thus: Binding affinity to ER in human MCF7 cells at 10 uM preincubated for 2 hrs followed by estradiol addition measured after 10 mins by confocal laser scanning microscopic method. It is filed as cell-based.
Data set [21] concerns the target T3, Estrogen receptor (Homo sapiens, UniProt P03372).
T3 sequence (P03372 whole entry): T2 sequence (whole entry)
The data set can be described thus: Antagonist activity at ERalpha (unknown origin) expressed in HEK293T cells assessed as inhibition of estradiol-induced response after 24 hrs by luciferase reporter gene assay. In kind it is cell-based.

T1 sequence (Q92731 whole entry): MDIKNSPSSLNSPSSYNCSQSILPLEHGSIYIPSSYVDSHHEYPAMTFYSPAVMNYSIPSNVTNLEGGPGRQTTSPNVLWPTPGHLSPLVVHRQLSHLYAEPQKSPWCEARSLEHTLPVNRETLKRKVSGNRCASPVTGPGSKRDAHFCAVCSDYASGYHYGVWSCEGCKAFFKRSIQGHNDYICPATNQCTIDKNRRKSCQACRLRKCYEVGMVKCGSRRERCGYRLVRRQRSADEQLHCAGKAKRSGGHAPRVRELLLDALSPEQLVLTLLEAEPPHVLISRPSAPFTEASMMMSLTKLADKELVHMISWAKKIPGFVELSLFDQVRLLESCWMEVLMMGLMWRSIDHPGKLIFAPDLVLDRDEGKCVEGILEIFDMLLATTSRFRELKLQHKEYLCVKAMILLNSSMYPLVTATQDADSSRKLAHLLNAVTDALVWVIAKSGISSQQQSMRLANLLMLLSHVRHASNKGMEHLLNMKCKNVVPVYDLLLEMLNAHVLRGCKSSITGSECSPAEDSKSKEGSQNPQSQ

What is called pIC50 is the IC50 on a negative log10 scale, so that one unit is a factor of ten. By pEC50 is commonly meant −log10 of the EC50, conventionally taken in molar units. Lower therefore signals a high EC50. For the compound `O=c1oc2cc(O)ccc2cc1-c1ccc(O)cc1`, the Efficacy in data set [1] is 138%; in [2], 101%. The outcome in data set [3] was inactive. The pIC50 in data set [4], in data set [6] and in data set [7] was less than 4.00 throughout. This compound had a pEC50 in data set [5] of 6.27.

As for `CCc1c(-c2ccc(O)cc2F)c(=O)oc2cc(O)ccc12`, the Drug uptake entry in data set [8], in [14] and in data set [17] was “Not Active” in each case. Further, the result in data set [9], in [10], in data set [12], in data set [13], in [15] and in data set [16] was Active. Besides, the outcome in data set [18] was Active. Also, the Efficacy in [1] was -6.9%; in data set [2], 26.4%. In addition, the result in [3], in [11], in data set [19] and in data set [20] was inactive. Further, the pIC50 in data set [4] is 5.10; in [6] it was less than 4.00; in [7], 4.79; in data set [21], 7.92.

With `C[C@]12CC[C@@H]3c4ccc(O)cc4CC[C@H]3[C@@H]1CC[C@@]2(O)C#Cc1ccc(CNC(=O)c2ccc(-c3c4ccc(=O)cc-4oc4cc(O)ccc34)c(C(=O)O)c2)cc1`, the result in data set [13] was inactive. Moreover, the Drug uptake entry in data set [17] is “Active”.

Regarding `CCC(=C(c1ccc(O)cc1)c1ccc(OCCN(C)C)cc1)c1ccccc1`, the results for the pIC50 in data set [4] and in data set [6] were 4.98 and 4.70, respectively.

`O=c1oc2cc(O)ccc2c(-c2ccc(O)cc2)c1-c1ccc(O)cc1`: the Efficacy worked out at 33.4% in [1] and 15.2% in data set [2]. Besides, the pIC50 in [4] is 4.54; in data set [6], 4.22; in [7] it was 4.31; in data set [21], 6.65. The pEC50 in data set [5] was 7.92.

For the compound `Cc1cc(O)ccc1-c1c(C)c2ccc(O)cc2oc1=O`, the Efficacy amounted to 72.1% in data set [1] and 65.3% in [2]. Moreover, the result in data set [3] was inactive. Further, the pIC50 was 4.26 in data set [4], less than 4.00 in data set [6], less than 4.00 in data set [7] and 6.95 in data set [21]. In addition, the pEC50 in [5] is 7.96.

`Cc1c(-c2ccc(O)cc2Cl)c(=O)oc2cc(O)ccc12`: the values for the Efficacy in data set [1] and in [2] were 12.9% and 84.6%, respectively. The outcome in [3] was inactive. The pIC50 in data set [4] was 4.57; in [6], 4.34; in data set [7], 4.67; in data set [21] it was 5.91. The same compound gave a negative-log EC50 (pEC50) in data set [5] of 6.05.

As for `CCc1c(-c2ccc(O)c(F)c2)c(=O)oc2cc(O)ccc12`, in data set [3], the result was inactive. Further, the pIC50 in data set [4] is 4.40; in [6], 4.31; in data set [7], 4.30.

As to `CCc1c(-c2ccc(O)cc2Cl)c(=O)oc2cc(O)ccc12`, the outcome in data set [9], in data set [10], in data set [12] and in data set [15] was Active. The values for the Efficacy in data set [1] and in data set [2] were 68.2% and 120%, respectively. For the same compound, the result in data set [3], in data set [11], in [19] and in data set [20] was inactive. In addition, the pIC50 was 4.43 in [4], less than 4.00 in data set [6] and 4.31 in data set [7]. The Drug uptake entry in data set [17] is reported as “Not Active”. Further, the pEC50 in [5] is 6.46.

In the case of `O=c1oc2cc(O)ccc2cc1-c1ccc(O)c(F)c1`, the Efficacy was determined as 66.7% in data set [1] and 124% in data set [2]. Also, the result in [3] was inactive. Also, the negative logarithm of the IC50 (pIC50) in [4], in data set [6] and in data set [7] was less than 4.00 each time. The same compound gave a pEC50 in [5] of 6.68.

Take `O=c1oc2cc(O)ccc2c(-c2ccc(O)c(F)c2)c1-c1ccc(O)c(F)c1`: the values for the Efficacy in data set [1] and in data set [2] were -11.2% and 57.8%, respectively. Besides, the outcome in [3] was inactive. The pIC50 was 4.50 in [4], less than 4.00 in [6], 4.40 in data set [7] and 6.66 in data set [21].
